Source: US6573271B2, “Method of preventing proliferation of retinal pigment epithelium by retinoic acid receptor agonists” (John Hopkins University School of Medicine, priority 1995, dated 2003)

Assays:
human RPE cells = test: [3H]thymidine incorporation / proliferation of cultured human RPE cells; settings: for effect on RPE cell proliferation, agent alone: FIG. 3, alone
Source text: Primary cultures of human retinal pigment epithelium (RPE) cells were established from eyes obtained from the Old Dominion Eye Bank (Richmond, Va.) or the Eye Bank of Maryland (Baltimore, Md.) using the technique described in P. A. Campochiaro, et al., Invest.
For [3H]thymidine incorporation, RPE cells at passage 3 or 4 were lightly trypsinized and plated in 16-mm wells of 24-well plates. The transfected cells were allowed to attach overnight and then the media containing 5% fetal bovine serum (FBS) were supplemented with retinoids or vehicle alone. Stock solutions (10^−3M) of retinoids were prepared in dimethylsulfoxide (DMSO) and stored as frozen aliquots until used; the highest final concentration of DMSO was 0.1% and was also used for control cultures. The media containing freshly prepared retinoids were changed every three days. At 7 or 10 days 2 μCi/ml of [^3H]thymidine (specific activity, 6.7 Ci/mM; New England Nuclear, Boston, Mass.) was added to the cultures and incorporation was measured as previously described (Leschey, supra).
The potency of retinoid agonists for inhibition of serum stimulated DNA synthesis in human RPE cells was tested. […] The cells were shifted to serum-free media containing the same concentration of retinoid and then pulsed with 10% serum for 18 hours, after which [^3H]thymidine incorporation was measured. Thymidine incorporation for cells grown in control medium was used to calculate the percent inhibition of thymidine incorporation induced by four concentrations of each retinoid (each concentration tested in triplicate) which were then used to generate each line.

[1] = tested on: traction retinal detachment in rabbits; test: Traction retinal detachment in rabbits after human RPE cells, subconjunctival injection; type: in vivo, rabbit; settings: subconjunctival 0.3 mg once a day for five days
Source text: Due to the toxicity of certain RAR agonists and because the effects of retinoids are delayed in onset and reversible, methods for sustained release of the retinoids were investigated. […] The therapeutic effect of the RAR specific agonists was greater than that of RA, which is an agonist for both RXRs and RARs. There were no signs of any toxicity to the retina.

[2] = tested on: traction retinal detachment in rabbits; test: Traction retinal detachment in rabbits after human dermal fibroblasts, subconjunctival lipid microvesicles; type: in vivo, rabbit; settings: for % Any RD / % Total RD / RD at 7 Days, Partial / RD at 7 Days, Total / RD at 14 Days, Partial / RD at 14 Days, Total / RD at 28 Days, Partial / RD at 28 Days, Total: human dermal fibroblasts
[3] = tested on: traction retinal detachment in rabbits; test: Traction retinal detachment in rabbits after human RPE cells, intravitreal injection of 168 and 299; type: in vivo, rabbit
[4] = tested on: traction retinal detachment in rabbits; test: Traction retinal detachment in rabbits after human dermal fibroblasts, intravitreous lipid microvesicles; settings: for % Any RD / % Total RD / RD at 7 Days, Partial / RD at 7 Days, Total / RD at 14 Days, Partial / RD at 14 Days, Total / RD at 28 Days, Partial / RD at 28 Days, Total: human dermal fibroblasts
Source text: In this experiment the retinoid was incorporated into lipid microvesicles utilizing standard techniques.

[5] = tested on: traction retinal detachment in rabbits; test: Traction retinal detachment in rabbits after human dermal fibroblasts, subconjunctival injection
RPE cells = test: RPE cell morphology after 10 days in retinoid; type: cell-based, human; settings: 1 μm, 5% serum, on plastic
retinas of the rabbits = test: Ocular toxicity after single intravitreous injection, histopathology of retina; type: in vivo, rabbit; settings: single intravitreous injection of 100 μg, two weeks after injection
Source text: The rabbits were killed two weeks after injection.

RXRα = biological target: T1, RXRα (Homo sapiens, UniProt P19793); test: Transactivation, ER/RXR-α hybrid receptor + ERE-CAT reporter cotransfected in HeLa cells
T1 sequence (P19793 227-458 limits assumed): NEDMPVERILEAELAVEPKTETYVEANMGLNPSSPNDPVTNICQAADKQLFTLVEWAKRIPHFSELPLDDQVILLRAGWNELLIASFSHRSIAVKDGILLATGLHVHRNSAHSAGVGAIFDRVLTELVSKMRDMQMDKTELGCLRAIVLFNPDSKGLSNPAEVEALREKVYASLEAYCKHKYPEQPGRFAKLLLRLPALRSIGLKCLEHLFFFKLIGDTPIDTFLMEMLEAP

[6] = tested on: rabbit cell injection model of PVR; test: Rabbit cell injection model of PVR (RPE cells), intravitreous injection of retinoids; type: in vivo; settings: for Any RD (%) / Total RD (%): 28 Days
Procedure: Briefly, pigmented rabbits were anesthetized with a subcutaneous injection of 5 mg/kg of xylazine and 25 mg/kg of ketamine, and the pupil of one eye was dilated with 2½% phenylephrine. Under direct observation 5×10^5 RPE cells were injected into the vitreous cavity just anterior to the optic nerve. […] .
Rabbits were examined by indirect ophthalmoscopy on days 7, 14 and 28 and traction retinal detachments were graded. […] . The localized clouds decreased in size and cleared over 2 to 3 weeks. There were no visible changes in the retina. […] .
It was felt that the hair loss and possibly the loss of appetite and death were due to systemic toxicity from drug that had gotten out of the eye. […] . None of the rabbits experienced hair loss and none died; their appetites appeared to be normal.

[7] = 50 μg, single intravitreous injection
[8] = 100 μg intravitreous, two injections (day 1 and day 2 after cell injection)
[9] = 100 μg intravitreous, two injections
[10] = Homo sapiens, RPE, read-out: Percent Inhibition of [3H]thymidine incorporation in RPE cells

CC1=C(/C=C/C(C)=C/C=C/C(C)=C\C(=O)O)C(C)(C)CCC1 [13-cis RA, 13-cis-retinoic acid, reference compound]
IC50 (human RPE cells; read-out: RPE 148 IC50 (50% inhibition of RPE cell growth relative to mock treated RPE cells), measured as in Example 2): 0.03 µM

CCOC(=O)c1ccc(C#Cc2ccc3c(c2)C(C)(C)CCS3)nc1 [Compound 168, ethyl 6-[2-(4,4-dimethylthiochroman-6-yl)ethynyl]nicotinate]
% Any RD [1]: 16%
% Total RD [1]: 16%
RD at 7 Days, Partial [1]: 0
RD at 7 Days, Total [1]: 0
RD at 14 Days, Partial [1]: 0
RD at 14 Days, Total [1]: 0
RD at 28 Days, Partial [1]: 1
RD at 28 Days, Total [1]: 0
inhibition of tractional retinal detachment [2]: substantially more effective at inhibiting tractional retinal detachment
% Any RD [2]: 33%
% Total RD [2]: 33%
RD at 7 Days, Partial [2]: 0
RD at 7 Days, Total [2]: 0
RD at 14 Days, Partial [2]: 1
RD at 14 Days, Total [2]: 0
RD at 28 Days, Partial [2]: 0
RD at 28 Days, Total [2]: 2
% Any RD [3]: 80%
% Total RD [3]: 8%
RD at 7 Days, Partial [3]: 1
RD at 7 Days, Total [3]: 0
RD at 14 Days, Partial [3]: 1
RD at 14 Days, Total [3]: 0
RD at 28 Days, Partial [3]: 7
RD at 28 Days, Total [3]: 1
prevention of traction retinal detachment [4]: very effective in preventing traction retinal detachment
% Any RD [4]: 29%
% Total RD [4]: 29%
RD at 7 Days, Partial [4]: 0
RD at 7 Days, Total [4]: 0
RD at 14 Days, Partial [4]: 0
RD at 14 Days, Total [4]: 0
RD at 28 Days, Partial [4]: 0
RD at 28 Days, Total [4]: 2
% Any RD [5]: 60%
% Total RD [5]: 20%
RD at 7 Days, Partial [5]: 0
RD at 7 Days, Total [5]: 0
RD at 14 Days, Partial [5]: 0
RD at 14 Days, Total [5]: 0
RD at 28 Days, Partial [5]: 4
RD at 28 Days, Total [5]: 2
effect on retinal detachments [5]: decreased the number of retinal detachments and slowed the rate at which they developed

C/C(=C\c1ccc(C(=O)O)cc1)c1ccc2c(c1)C(C)(C)CCC2(C)C [Compound 183, p-[(E)-2-(5,6,7,8-tetrahydro-5,5,8,8-tetramethyl-2-naphthyl)propenyl]-benzoic acid]
RPE cell morphology / cell overgrowth (RPE cells): prevented cell overgrowth
photoreceptor degeneration, histopathology (retinas of the rabbits): Occasional focal areas of photoreceptor degeneration were seen in one eye
EC50 (RXRα): 15 µM
Partial RD at 14 Days (number of eyes) [6, 7]: 1
Partial RD at 28 Days (number of eyes) [6, 7]: 1
Total RD at 14 Days (number of eyes) [6, 7]: 2
Total RD at 28 Days (number of eyes) [6, 7]: 2
Any RD (%) [6, 7]: 33+ %
Total RD (%) [6, 7]: 22%
Partial RD at 14 Days (number of eyes) [6, 8]: 0
Partial RD at 28 Days (number of eyes) [6, 8]: 0
Total RD at 14 Days (number of eyes) [6, 8]: 0
Total RD at 28 Days (number of eyes) [6, 8]: 0
Any RD (%) [6, 9]: 0++ %
Total RD (%) [6, 9]: 0%
frequency and severity of traction retinal detachments versus vehicle ([6]; initial group, intravitreous injections of 100 μg): None of these rabbits developed retinal detachments
frequency and severity of retinal detachments versus control ([6]; single intravitreous injection one day after RPE cell injection): fewer (p(0.05) and less severe retinal detachments
deaths before completion of the 28 day observation period ([6]; two intravitreous injections of 100 μg, five rabbits): two rabbits died
inhibition at 0.05 µM (human RPE cells; [10]): 76.7%
inhibition at 0.1 µM (human RPE cells; [10]): 98.6%
inhibition at 1 µM (human RPE cells; [10]): 98.8%
inhibition of RPE cell proliferation (human RPE cells; comment on Table 3): effective inhibitors of RPE cell proliferation

CC1(C)CCOc2ccc(C#Cc3ccc(C(=O)O)cn3)cc21 [Compound 299, 6-[2-(4,4-dimethylchroman-6-yl)ethynyl]nicotinic acid]
% Any RD [1]: 0%
% Total RD [1]: 0%
RD at 7 Days, Partial [1]: 0
RD at 7 Days, Total [1]: 0
RD at 14 Days, Partial [1]: 0
RD at 14 Days, Total [1]: 0
RD at 28 Days, Partial [1]: 0
RD at 28 Days, Total [1]: 0
% Any RD [2]: 63%
% Total RD [2]: 50%
RD at 7 Days, Partial [2]: 0
RD at 7 Days, Total [2]: 0
RD at 14 Days, Partial [2]: 0
RD at 14 Days, Total [2]: 1
RD at 28 Days, Partial [2]: 1
RD at 28 Days, Total [2]: 4
% Any RD [3]: 80%
% Total RD [3]: 40%
RD at 7 Days, Partial [3]: 0
RD at 7 Days, Total [3]: 0
RD at 14 Days, Partial [3]: 1
RD at 14 Days, Total [3]: 1
RD at 28 Days, Partial [3]: 4
RD at 28 Days, Total [3]: 4
prevention of traction retinal detachment [4]: not effective
% Any RD [4]: 100%
% Total RD [4]: 100%
RD at 7 Days, Partial [4]: 0
RD at 7 Days, Total [4]: 0
RD at 14 Days, Partial [4]: 0
RD at 14 Days, Total [4]: 0
RD at 28 Days, Partial [4]: 0
RD at 28 Days, Total [4]: 3
% Any RD [5]: 40%
% Total RD [5]: 0%
RD at 7 Days, Partial [5]: 0
RD at 7 Days, Total [5]: 0
RD at 14 Days, Partial [5]: 0
RD at 14 Days, Total [5]: 0
RD at 28 Days, Partial [5]: 4
RD at 28 Days, Total [5]: 0
effect on retinal detachments [5]: decreased the number of retinal detachments and slowed the rate at which they developed

C=C1/C(=C\C=C2/CCC[C@]3(C)[C@@H]([C@H](C)CCCC(C)(C)O)CC[C@@H]23)C[C@@H](O)C[C@@H]1O [Compound D3, 1,25-dihydroxyvitamin D3, reference compound]
effect on RPE cell proliferation, agent alone (human RPE cells): did not

N[C@@H](Cc1cc(I)c(Oc2ccc(O)c(I)c2)c(I)c1)C(=O)O [Compound T3, reference compound]
effect on RPE cell proliferation, agent alone (human RPE cells): did not
